From patent publication US8232406B2, “c-MET protein kinase inhibitors” (Vertex Pharmaceuticals Incorporated, priority 2006, dated 2012) come the findings set out here.

c-MET, sequence (P08581 25-1390): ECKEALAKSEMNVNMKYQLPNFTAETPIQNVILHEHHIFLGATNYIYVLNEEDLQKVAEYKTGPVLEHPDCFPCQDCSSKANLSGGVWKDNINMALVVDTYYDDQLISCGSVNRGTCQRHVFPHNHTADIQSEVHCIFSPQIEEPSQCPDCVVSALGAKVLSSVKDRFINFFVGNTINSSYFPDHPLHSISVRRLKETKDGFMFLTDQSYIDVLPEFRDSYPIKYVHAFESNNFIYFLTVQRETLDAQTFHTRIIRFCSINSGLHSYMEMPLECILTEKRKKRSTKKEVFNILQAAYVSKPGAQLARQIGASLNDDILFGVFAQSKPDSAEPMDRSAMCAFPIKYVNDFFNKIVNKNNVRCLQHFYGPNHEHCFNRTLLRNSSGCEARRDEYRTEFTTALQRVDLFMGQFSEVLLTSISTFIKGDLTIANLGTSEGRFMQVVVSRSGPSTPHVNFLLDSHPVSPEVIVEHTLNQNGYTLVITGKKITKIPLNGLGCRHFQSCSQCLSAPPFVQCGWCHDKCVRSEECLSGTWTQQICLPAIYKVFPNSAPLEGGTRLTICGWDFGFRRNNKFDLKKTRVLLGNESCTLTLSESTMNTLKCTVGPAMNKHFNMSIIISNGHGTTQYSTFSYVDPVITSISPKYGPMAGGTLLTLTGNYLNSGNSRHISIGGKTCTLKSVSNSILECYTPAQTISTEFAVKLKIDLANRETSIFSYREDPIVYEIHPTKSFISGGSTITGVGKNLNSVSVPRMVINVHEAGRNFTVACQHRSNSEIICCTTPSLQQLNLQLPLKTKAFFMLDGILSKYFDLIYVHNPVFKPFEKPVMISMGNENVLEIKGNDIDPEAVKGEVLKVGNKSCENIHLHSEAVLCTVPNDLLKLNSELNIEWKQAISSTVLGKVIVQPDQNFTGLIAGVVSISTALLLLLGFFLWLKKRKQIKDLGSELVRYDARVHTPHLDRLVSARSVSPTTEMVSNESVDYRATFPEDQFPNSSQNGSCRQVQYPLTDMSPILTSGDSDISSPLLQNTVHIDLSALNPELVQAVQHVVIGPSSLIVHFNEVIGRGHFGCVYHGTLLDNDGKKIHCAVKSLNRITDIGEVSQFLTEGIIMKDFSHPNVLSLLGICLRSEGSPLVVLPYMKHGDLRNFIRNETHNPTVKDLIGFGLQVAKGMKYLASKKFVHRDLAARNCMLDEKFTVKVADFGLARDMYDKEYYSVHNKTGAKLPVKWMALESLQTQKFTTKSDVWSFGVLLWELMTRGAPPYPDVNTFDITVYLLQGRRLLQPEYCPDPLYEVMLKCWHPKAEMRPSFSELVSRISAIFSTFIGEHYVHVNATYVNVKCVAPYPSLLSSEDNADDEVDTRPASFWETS

The assay has as its target c-MET (Homo sapiens, UniProt P08581). Put plainly: Ki determination for the inhibition of c-MET (standard radiometric 33P-ATP kinase assay, polyE4Y substrate). Type of assay: biochemical. The conditions noted are these: 1.0 nM c-Met, 35 μM ATP, 0.5 mg/mL polyE4Y, 20 min; competitive tight-binding fit. The procedure:
Ki Determination for the Inhibition of c-MET
Compounds of the invention were screened for their ability to inhibit c-MET kinase activity using a standard radiometric assay. Briefly, in this kinase assay the transfer of the terminal ^33P-phosphate in ^33P-ATP to substrate polyE4Y is interrogated. The assay was carried out in 96-well plates to a final volume of 100 μL per well containing 1.0 nM c-Met, 100 mM HEPES (pH 7.5), 10 mM MgCl2, 25 mM NaCl, 0.01% BSA, 1 mM DTT, 0.5 mg/mL polyE4Y, and 35 μM ATP. Accordingly, compounds of the invention were dissolved in DMSO to make 10 mM initial stock solutions. Serial dilutions in DMSO were then made to obtain the final solutions for the assay. A 1.5 μL aliquot of DMSO or inhibitor in DMSO was added to each well. The reaction was initiated by the addition of ^33P-ATP and polyE4Y (obtained from Sigma). After 20 min, the reaction was quenched with 50 μL of 30% trichloroacetic acid (TCA) containing 4 mM ATP. The reaction mixture was transferred to the 0.66 mm GF filter plates (Corning) and washed three times with 5% TCA. Following the addition of 50 μL of Ultimate Gold™ high efficiency scintillant (Packard Bioscience), the samples were counted in a Packard TopCount NXT Microplate Scintillation and Luminescence Counter (Packard BioScience). The Ki values were calculated using Microsoft Excel Solver macros to fit the data to the kinetic model for competitive tight-binding inhibition.
As a reminder, the Ki is the equilibrium dissociation constant of an inhibitor or competing ligand from its target. A low value points to tighter binding. As to `CC(c1ccc(-c2cnc(N)c(-c3nnnn3-c3cccc(F)c3F)c2)cc1)N1CCCC1` (centres unmarked) [I-A-180], the Ki is at most 100 nM.

In turn, `Nc1ncc(-c2ccc(CCN3CCCC3)cc2)cc1-c1nnnn1-c1cccc(F)c1F` [I-A-181] had a Ki of at most 100 nM.

For `CC(=O)N1CCc2cc(-c3cnc(N)c(-c4nnnn4-c4cccc(F)c4F)c3)ccc21` [I-A-182], the Ki is at most 100 nM.

With `NC(=O)Nc1ccc(-c2cnc(N)c(-c3nnnn3-c3cccc(F)c3F)c2)cc1` [I-A-183], the Ki is at most 100 nM.

Regarding `Nc1ncc(-c2ccc(NC(=O)CN3CCCC3)cc2)cc1-c1nnnn1-c1cccc(F)c1F` [I-A-184], the Ki was at most 100 nM.

For `Nc1ncc(-c2cc(C(=O)O)cs2)cc1-c1nnnn1-c1cccc(F)c1F` [I-A-185], the Ki fell in the range of 100 to 1000 nM.

Compound `Nc1ncc(-c2ccc(CN3CCCC3)s2)cc1-c1nnnn1-c1cccc(F)c1F` [I-A-186] displayed a Ki of at most 100 nM.

For the compound `Nc1ncc(-c2ccc(S(N)(=O)=O)s2)cc1-c1nnnn1-c1cccc(F)c1F` [I-A-187], the inhibition constant (Ki) was at most 100 nM.

Take `Nc1ncc(-c2ccc3c(c2)CC(=O)N3)cc1-c1nnnn1-c1cccc(F)c1F` [I-A-188]: the Ki was at most 100 nM.

`Nc1ncc(-c2ccc(N3CCCC3=O)cc2)cc1-c1nnnn1-c1cccc(F)c1F` [I-A-189] gave a Ki of at most 100 nM.

Take `Nc1ncc(-c2ccc3c(c2)NC(=O)C3)cc1-c1nnnn1-c1cccc(F)c1F` [I-A-190]: the Ki was at most 100 nM.

In turn, `CN(C)CC(=O)Nc1ccc(-c2cnc(N)c(-c3nnnn3-c3cccc(F)c3F)c2)cc1` [I-A-191] had a Ki of at most 100 nM.

Compound `CS(=O)(=O)NCc1ccc(-c2cnc(N)c(-c3nnnn3-c3cccc(F)c3F)c2)cc1` [I-A-192] gave a Ki of at most 100 nM.

As to `CC(C)C(=O)Nc1ccc(-c2cnc(N)c(-c3nnnn3-c3cccc(F)c3F)c2)cc1` [I-A-193], the Ki was at most 100 nM.

Compound `CC(C)(C)C(=O)Nc1ccc(-c2cnc(N)c(-c3nnnn3-c3cccc(F)c3F)c2)cc1` [I-A-194] came in with a Ki of 100 to 1000 nM.

Compound `CCCC(=O)Nc1ccc(-c2cnc(N)c(-c3nnnn3-c3cccc(F)c3F)c2)cc1` [I-A-195] displayed a Ki of 100 to 1000 nM.

For the compound `CCOC(=O)CC(=O)Nc1ccc(-c2cnc(N)c(-c3nnnn3-c3cccc(F)c3F)c2)cc1` [I-A-196], the Ki lay in the range of 100 to 1000 nM.

Turning to `CCC(CC)C(=O)Nc1ccc(-c2cnc(N)c(-c3nnnn3-c3cccc(F)c3F)c2)cc1` [I-A-197], the Ki is at most 100 nM.

The compound `CC(C)(C)CC(=O)Nc1ccc(-c2cnc(N)c(-c3nnnn3-c3cccc(F)c3F)c2)cc1` [I-A-199] showed a Ki of at most 100 nM.

The compound `CNCc1ccc(-c2cnc(N)c(-c3nnnn3-c3cccc(F)c3F)c2)cc1` [I-A-200] gave an inhibitory constant (Ki) of at most 100 nM.

In turn, `Nc1cccc(-c2cnc(N)c(-c3nnnn3-c3cccc(F)c3F)c2)c1` [I-A-201] came in with a Ki of at most 100 nM.

`NCc1ccc(-c2cnc(N)c(-c3nnnn3-c3cccc(F)c3F)c2)cc1` [I-A-202]: the inhibitory constant (Ki) was at most 100 nM.

With `Nc1ncc(-c2ccc(CN3CCCC3=O)cc2)cc1-c1nnnn1-c1cccc(F)c1F` [I-A-203], the Ki is at most 100 nM.

The compound `Nc1ncc(-c2ccc3c(c2)C(=O)C(=O)N3)cc1-c1nnnn1-c1cccc(F)c1F` [I-A-204] had a Ki of at most 100 nM.

Take `Nc1ncc(-c2ccc(C(N)C(=O)O)cc2)cc1-c1nnnn1-c1cccc(F)c1F` (centres unmarked) [I-A-205]: the Ki lay within 100 to 1000 nM.

Regarding `COC(=O)C(N)c1ccc(-c2cnc(N)c(-c3nnnn3-c3cccc(F)c3F)c2)cc1` (centres unmarked) [I-A-206], the Ki was at most 100 nM.

Take `COC(=O)C(C)(C)c1ccc(-c2cnc(N)c(-c3nnnn3-c3cccc(F)c3F)c2)cc1` [I-A-207]: the Ki is at most 100 nM.

Compound `COC(=O)C(c1ccc(-c2cnc(N)c(-c3nnnn3-c3cccc(F)c3F)c2)cc1)N1CCCC1` (centres unmarked) [I-A-208] registered a Ki of at most 100 nM.

As for `CC1CCCN1Cc1ccc(-c2cnc(N)c(-c3nnnn3-c3cccc(F)c3F)c2)cc1` (centres unmarked) [I-A-209], the Ki was at most 100 nM.

Consider `CC1CCC(C)N1Cc1ccc(-c2cnc(N)c(-c3nnnn3-c3cccc(F)c3F)c2)cc1` (centres unmarked) [I-A-210], for which the Ki is at most 100 nM.

Compound `C[C@@H](c1ccc(-c2cnc(N)c(-c3nnnn3-c3cccc(F)c3F)c2)cc1)N1CCCC1` [I-A-211] returned a Ki of at most 100 nM.

For the compound `C[C@H](c1ccc(-c2cnc(N)c(-c3nnnn3-c3cccc(F)c3F)c2)cc1)N1CCCC1` [I-A-212], the Ki is at most 100 nM.

In turn, `Nc1ncc(-c2ccc(CN3CCCC3)c(F)c2)cc1-c1nnnn1-c1cccc(F)c1F` [I-A-213] came in with a Ki of at most 100 nM.

As to `Nc1ncc(-c2cccc(C(F)(F)F)c2)cc1-c1nnnn1-c1cccc(F)c1F` [I-A-215], the Ki lay in the range of 100 to 1000 nM.

`CC(=O)c1cccc(-c2cnc(N)c(-c3nnnn3-c3cccc(F)c3F)c2)c1` [I-A-218] had an inhibitory constant (Ki) of at most 100 nM.

`CC(=O)c1ccc(-c2cnc(N)c(-c3nnnn3-c3cccc(F)c3F)c2)cc1` [I-A-219] displayed a Ki of at most 100 nM.

The compound `COc1cc(O)ccc1-c1cnc(N)c(-c2nnnn2-c2cccc(F)c2F)c1` [I-A-220] had a Ki of at most 100 nM.

`COc1cccc(-c2cnc(N)c(-c3nnnn3-c3cccc(F)c3F)c2)c1` [I-A-221] had a Ki of at most 100 nM.

The compound `COc1ccc(-c2cnc(N)c(-c3nnnn3-c3cccc(F)c3F)c2)cc1` [I-A-222] showed a Ki of at most 100 nM.

In the case of `Nc1ncc(-c2ccc(F)cc2)cc1-c1nnnn1-c1cccc(F)c1F` [I-A-223], the inhibitory constant (Ki) was at most 100 nM.

In turn, `Nc1ncc(-c2ccccc2Cl)cc1-c1nnnn1-c1cccc(F)c1F` [I-A-224] returned a Ki of 100 to 1000 nM.

Compound `Nc1ncc(-c2cccc(Cl)c2)cc1-c1nnnn1-c1cccc(F)c1F` [I-A-225] displayed a Ki of 100 to 1000 nM.

Take `N#Cc1cccc(-c2cnc(N)c(-c3nnnn3-c3cccc(F)c3F)c2)c1` [I-A-228]: the Ki lay in the range of 100 to 1000 nM.

Consider `N#Cc1ccc(-c2cnc(N)c(-c3nnnn3-c3cccc(F)c3F)c2)cc1` [I-A-229], for which the Ki is 100 to 1000 nM.

Consider `Nc1ncc(-c2cccc(CO)c2)cc1-c1nnnn1-c1cccc(F)c1F` [I-A-231], for which the Ki was at most 100 nM.

For `Nc1ncc(-c2ccc(CO)cc2)cc1-c1nnnn1-c1cccc(F)c1F` [I-A-232], the Ki is at most 100 nM.

As for `Nc1ncc(-c2ccccc2)cc1-c1nnnn1-c1cccc(F)c1F` [I-A-233], the Ki is at most 100 nM.

In turn, `CN(C)c1ccc(-c2cnc(N)c(-c3nnnn3-c3cccc(F)c3F)c2)cc1` [I-A-234] gave an inhibitory constant (Ki) of at most 100 nM.

Consider `Nc1ncc(-c2ccc3c(c2)OCCO3)cc1-c1nnnn1-c1cccc(F)c1F` [I-A-235], for which the Ki is at most 100 nM.

Compound `CC(C)c1cccc(-c2cnc(N)c(-c3nnnn3-c3cccc(F)c3F)c2)c1` [I-A-236] yielded a Ki of 100 to 1000 nM.

Regarding `CC(C)c1ccc(-c2cnc(N)c(-c3nnnn3-c3cccc(F)c3F)c2)cc1` [I-A-237], the Ki lay in the range of 100 to 1000 nM.

Compound `Nc1ncc(-c2cccc([N+](=O)[O-])c2)cc1-c1nnnn1-c1cccc(F)c1F` [I-A-239] displayed a Ki of at most 100 nM.

With `CC(C)Oc1ccc(-c2cnc(N)c(-c3nnnn3-c3cccc(F)c3F)c2)cc1` [I-A-240], the Ki was in the range of 100 to 1000 nM.

In the case of `Cc1ccccc1-c1cnc(N)c(-c2nnnn2-c2cccc(F)c2F)c1` [I-A-241], the Ki was in the range of 100 to 1000 nM.

Take `Cc1cccc(-c2cnc(N)c(-c3nnnn3-c3cccc(F)c3F)c2)c1` [I-A-242]: the Ki is at most 100 nM.

Compound `NC(=O)c1ccc(-c2cnc(N)c(-c3nnnn3-c3cccc(F)c3F)c2)cc1` [I-A-245] had a Ki of at most 100 nM.

As to `Nc1ncc(-c2cccc(O)c2)cc1-c1nnnn1-c1cccc(F)c1F` [I-A-247], the Ki is at most 100 nM.

As for `Nc1ncc(-c2ccn[nH]2)cc1-c1nnnn1-c1cccc(F)c1F` [I-A-248], the Ki lay within 100 to 1000 nM.

Take `Cn1cc(-c2cnc(N)c(-c3nnnn3-c3cccc(F)c3F)c2)cn1` [I-A-249]: the Ki was at most 100 nM.

`CS(=O)(=O)c1ccc(-c2cnc(N)c(-c3nnnn3-c3cccc(F)c3F)c2)cc1` [I-A-250] registered a Ki of at most 100 nM.

`CSc1ccc(-c2cnc(N)c(-c3nnnn3-c3cccc(F)c3F)c2)cc1` [I-A-251] returned a Ki of at most 100 nM.

`CSc1ccccc1-c1cnc(N)c(-c2nnnn2-c2cccc(F)c2F)c1` [I-A-252] had a Ki of 100 to 1000 nM.

`CS(=O)(=O)Nc1cccc(-c2cnc(N)c(-c3nnnn3-c3cccc(F)c3F)c2)c1` [I-A-254] returned a Ki of at most 100 nM.

Compound `Cc1ccc(-c2cnc(N)c(-c3nnnn3-c3cccc(F)c3F)c2)cc1` [I-A-255] had a Ki of 100 to 1000 nM.

In the case of `Nc1ncc(-c2ccc(N3CC(=O)NC3=O)cc2)cc1-c1nnnn1-c1cccc(F)c1F` [I-A-256], the Ki is at most 100 nM.

`Nc1ncc(-c2ccc(C3NC(=O)NC3=O)cc2)cc1-c1nnnn1-c1cccc(F)c1F` (centres unmarked) [I-A-257] gave a Ki of at most 100 nM.

Consider `Nc1ncc(-c2ccc(C3CCCN3)cc2)cc1-c1nnnn1-c1cccc(F)c1F` (centres unmarked) [I-A-258], for which the Ki is at most 100 nM.

Regarding `Nc1ncc(-c2cccc(NC(=O)CN3CCCC3)c2)cc1-c1nnnn1-c1cccc(F)c1F` [I-A-259], the Ki was at most 100 nM.

As to `CC(C)C(=O)Nc1cccc(-c2cnc(N)c(-c3nnnn3-c3cccc(F)c3F)c2)c1` [I-A-260], the inhibition constant Ki is 100 to 1000 nM.

Take `Nc1ncc(-c2cccc(NC(=O)C3CC3)c2)cc1-c1nnnn1-c1cccc(F)c1F` [I-A-261]: the Ki is at most 100 nM.

In turn, `CC(c1ccc(-c2cnc(N)c(-c3nnnn3-c3cccc(F)c3F)c2)s1)N1CCCC1` (centres unmarked) [I-A-262] returned a Ki of at most 100 nM.
